Test results taken from patent US12479794B2, “Acetophenone oxime compound and application thereof” (Medshine Discovery Inc., priority 2020, dated 2025).

Tests used:
S1P1 = target: T1, S1P1 (Homo sapiens, UniProt P21453); experiment: In vitro agonistic activity on S1P1, U2OS-EDG1 cells, LiveBLAzer FRET B/G; assay type: cell-based
T1 construct: host or cells: U2OS
Experimental: Assay Example 1: In Vitro Evaluation of the Agonistic Activity of the Compounds of the Present Disclosure on S1P1
Object of the assay: To detect the agonistic activity of compounds on S1P1
• 1. Cells U2OS-EDG1 (Batch No.: Invitrogen-K1520) were taken out of a liquid nitrogen tank and placed in a 37° C. water bath to thaw quickly; • 2. The cell suspension was aspirated into a 15 ml centrifuge tube, resuspended in 5 ml of preheated medium, and centrifuged at 1000 rpm for 5 min; • 3. The supernatant was discarded. The cells were resuspended in 10 ml of medium, transferred into a T75 culture flask, and cultivated in an incubator with 5% CO2 at 37° C. II. Agonist Assay • 1. The compounds were diluted to working concentrations, and serially diluted 3-fold by Echo 555 (manufacturer: Labcyte) to obtain 10 concentrations; 200 nL of each concentration of the compound was transferred to a cell plate and centrifuged at 1000 rpm for 15 seconds; • 2. Culture medium was aspirated from the culture flask; 4 mL of Dulbecco's phosphate buffer (DPBS, supplier: Coring, item No.: 21-031-CVR, batch No.: 03318006) was added, and the residual serum was washed away; 2 mL of trypsin was added; The mixture was incubated in an incubator at 37° C. for 2 min, and the cells were digested; 10 mL of seeding medium was added to resuspend the cells; 0.6 mL of cell suspension was taken out and counted; • 3. The density of cells was adjusted to 1.88E+05 cells/mL using seeding medium, with 40 μL per well (7500\well); 40 μL of FreeStyle™ Expression medium was added around the cell plate; The plate was let stand at room temperature for 15 min and incubated at 37° C. with 5% CO2 for 20 hours. III. Signal Detection • 1. LiveBLAzer™-FRET B/G Substrate (CCF4-AM) assay reagents were formulated according to the instructions; • 2. 8 μL of 6×Substrate Mixture was added to each well of the cell plate; The plate was centrifuged at 1000 rpm for 15 seconds, covered with a film, and incubated at 23° C. for 2 hours; The cell plate was subjected to Envision […] detection. IV. Data Analysis • 1. The raw data were converted into % Effect by using an equation, and the EC50 value can be obtained by curve fitting with four parameters [“log(agonist) vs. response—Variable slope” model in GraphPad Prism]; • 2. Calculation formula: Ratio=(460 nm−blank)/(535 nm−blank) % Effect=(SampleRatio−Ave LCRatio)/(Ave HCRatio−Ave LCRatio)×100%

[1] = Pharmacokinetic evaluation in SD rats (iv and oral); assay type: in vivo, Sprague Dawley rats; settings: male, Sprague-Dawley, rat, plasma, iv 1.0, po 2.0 mg/kg
Experimental: Assay Example 2: Pharmacokinetic Evaluation of Compounds in Rats
Object of the assay: To evaluate the in vivo pharmacokinetics of the compounds in SD rats
Sprague Dawley rats (male, 200-300 g, 7-9 weeks old, Shanghai SLAC)
The pharmacokinetic characteristics of the compounds in rodents after intravenous injection and oral administration were assayed according to the standard protocol. In the assay, the candidate compounds were formulated into clear solutions and administered to rats by single intravenous injection and oral administration. The vehicle for intravenous injection and oral administration was DMSO and 10% hydroxypropyl β-cyclodextrin in water (DMSO:10% hydroxypropyl β-cyclodextrin in water=5:95). Whole blood samples were collected within 48 hours, and centrifuged at 3000 g for 15 minutes. The supernatant was separated to give plasma samples. 4 times the volume of acetonitrile solution containing internal standard was added to precipitate protein. The resulting mixture was centrifuged and the supernatant was taken out. An equal volume of water was added and the mixture was centrifuged. The supernatant was taken out, and injected as a sample to quantitatively analyze the plasma drug concentration by LC-MS/MS analysis method. The pharmacokinetic parameters, such as peak concentration, time to peak, clearance rate, half-life, area under drug-time curve, bioavailability, etc., were calculated.

[2] = system: ischemia-reperfusion cerebral infarction model; experiment: Ischemia-reperfusion cerebral infarction (MCAO) model in male SD rats; assay type: in vivo; settings: 90-min MCAO ischemia-reperfusion, 1 mg/kg tail vein after reperfusion, model group 32.4%, P<0.05 vs. model group
Excerpt: Assay Example 3: Pharmacodynamic Evaluation of the Compound in Ischemia-Reperfusion Cerebral Infarction Model in Male SD Rats Object of the assay: pharmacodynamic assay to explore the improvement of compound 32 on the ischemia-reperfusion cerebral infarction model in rats Materials of the assay: male SD rats (250 g-280 g, SPF grade, Zhejiang Vital River Laboratory Animal Technology Co., Ltd.) • 1) Anesthesia: Respiratory anesthesia with 2.5% isoflurane was used to maintain the depth of anesthesia for animals. • 2) Middle Cerebral Artery Occlusion (MCAO) Model: Animals weighed in the range of 250-280 g at the time of modeling surgery. […] For the administration of the assay sample group, compound 32 was injected through the tail vein of rats after reperfusion with a dose of 1 mg/kg and a volume of 5 mL/kg. • 3) Success criteria for the model: • 1: Within 60 minutes after surgery, the animals were scored according to the Bederson method, and the animals with a score of 2-3 were included in the group. • 2: Within 30-60 minutes of modeling, if the cerebral blood flow on the model side (left side) was reduced by more than 30% compared with that on the right side, the model was considered successful, and the animal was included in the group. […]

T1 sequence (P21453 whole entry): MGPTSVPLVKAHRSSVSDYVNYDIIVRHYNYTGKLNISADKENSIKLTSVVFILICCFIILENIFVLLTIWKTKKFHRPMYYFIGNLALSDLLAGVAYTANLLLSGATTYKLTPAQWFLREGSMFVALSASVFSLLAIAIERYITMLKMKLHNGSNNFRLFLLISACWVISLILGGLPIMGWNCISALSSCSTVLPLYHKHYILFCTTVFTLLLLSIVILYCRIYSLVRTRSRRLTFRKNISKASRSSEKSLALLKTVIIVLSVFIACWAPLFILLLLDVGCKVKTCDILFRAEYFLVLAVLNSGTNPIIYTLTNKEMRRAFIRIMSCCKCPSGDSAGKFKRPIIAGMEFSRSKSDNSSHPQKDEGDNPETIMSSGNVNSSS

## C/C(=N\OCc1ccc(OC(C)C)c(C(F)(F)F)c1)c1ccc2c(c1)CCC2N1CC(C(=O)O)C1 (stereo not drawn) [Compound 32]
S1P1
  EC50: 2.3 nM
S1P1; % Effect
  Emax: 98.6%
[1]; intravenous, read-out: Clearance rate CL
  clearance: 11.3 mL/min/kg
[1]; intravenous, read-out: Distribution in tissue Vdss
  Vd: 4.35 L/kg
[1]; read-out: Bioavailability F
  bioavailability: 92.7%
[1]; read-out: Peak concentration Cmax
  Cmax: 556 nM
[1]; po, 2 mg/kg, PO, read-out: Area under drug-time curve AUC0-last PO
  AUC(0-t): 5.47 µM·h
[1]; po, 2 mg/kg, PO, read-out: Half life T1/2 (PO) (converted)
  half-life: 5.44 h
[2]
  Percentage of left cerebral infarct area: 21.0%
